Data: publication PMC6695626, “Detection of Osmotic Shock-Induced Extracellular Nucleotide Release with a Genetically Encoded Fluorescent Sensor of ADP and ATP” (Sensors (Basel, Switzerland), 2019)

Target: T1, ADP sensor (mTFP1-ParM-mVenus cp157 terminal fusion; ADPrime sensor, soluble form) (Escherichia coli, UniProt P11904, C287A/K33A/T174A/T175N)
T1 construct: ParM flanked by FRET reporters: wild-type mTFP1 via SGITS linker at N-terminus, mVenus-cp157 via AAA linker at C-terminus; expressed in E. coli DH5alpha
T1 sequence (P11904 1-320 K33A/T174A/T175N/C287A): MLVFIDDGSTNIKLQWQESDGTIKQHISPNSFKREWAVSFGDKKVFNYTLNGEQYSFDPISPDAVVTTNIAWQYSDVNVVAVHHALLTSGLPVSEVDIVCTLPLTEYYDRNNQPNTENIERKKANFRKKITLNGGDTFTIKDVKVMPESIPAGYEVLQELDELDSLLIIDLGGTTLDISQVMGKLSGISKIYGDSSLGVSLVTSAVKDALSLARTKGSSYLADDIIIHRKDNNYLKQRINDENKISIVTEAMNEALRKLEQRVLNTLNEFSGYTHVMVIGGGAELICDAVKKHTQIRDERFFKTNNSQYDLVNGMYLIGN
Assay: FRET ratio (mTFP1/mVenus) dose response, Hill fit
Type: binding
Conditions: read-out: apparent Kd

Row | Structure (SMILES) | Kd [µM]
1 | Nc1ncnc2c1ncn2[C@@H]1O[C@H](COP(=O)(O)OP(=O)(O)O)[C@@H](O)[C@H]1O [ADP] | 0.16 ± 0.06
2 | Nc1ncnc2c1ncn2[C@@H]1O[C@H](COP(=O)(O)OP(=O)(O)OP(=O)(O)O)[C@@H](O)[C@H]1O [ATP] | 9.9 ± 6.3
